Tested on: SK-N-SH cells
Assay: Test 3: protection of neuronal cells against hydrogen peroxide (LDH cell death test, Resazurin cell survival test)
Format: cell-based, human
Settings: for protection of cells against hydrogen peroxide, cumulative treatment, polyphenols taken individually (cell survival, Resazurin test): 1 μM, 1 nM and 1 pM for 3 consecutive days, then hydrogen peroxide 250 μM, analyzed 24 hours later; for protection of cells against hydrogen peroxide, acute treatment (cell death LDH release, survival Resazurin test): toxic hydrogen peroxide (250 μM), co-treated 24 hours at 1 μM, 1 nM and 1 pM
Experimental: For this, SK-N-SH cells, a cell line of human neuroblasts, were kept in a MEM supplemented with 10% (v/v) FBS, 100 U/ml of penicillin, 100 μg/ml of streptomycin and 1% sodium pyruvate (1 mM) in a humidified incubator at 37° C. with 5% CO2. The cells were grown to 80% confluence then seeded in multi-well cell culture plates to create different experimental models. The neuroprotective effect of the different compounds was analyzed by two different and complementary tests: the cell death quantification test and the cell survival test.
The cell death test is a colorimetric test based on measuring the activity of the lactate dehydrogenase (LDH) released by the cytosol from damaged cells in the supernatant.
The cell survival test was performed by conducting a Resazurin Test. Resazurin is an oxidation-reduction indicator of the permeable cell that can be used to monitor the number of viable cells by using tetrazolium compounds. The viable cells with an active metabolism can reduce resazurin into a resorufin product that is pink and fluorescent.
SK-N-SH neuronal cells were subjected to a toxic concentration of hydrogen peroxide (250 μM) and co-treated with epicatechin, catechin or ferulic acid at 1 μM, 1 nM and 1 pM for 24 hours. On completing the treatment, the cells were washed twice and cell death (release of LDH) and survival (Resazurin test) were analyzed.
In order to study the synergistic effect of epicatchin, catechin and ferulic acid, the SK-N-SH neuronal cells were subjected for 24 hours to a toxic concentration of hydrogen peroxide and co-treated with a mix comprising epicatechin, catechin and ferulic acid, said mix being tested at the different concentrations of 1 μM, 1 nM or 1 pM. On completing the treatment, the cells were washed twice and the cell death (release of LDH) and survival (Resazurin test) were analyzed.
The neuroprotective effects of the three polyphenols, i.e. epicatechin, catechin and ferulic acid, with a cumulative treatment, were then studied. The SK-N-SH cells were grown to 80% confluence then seeded in multi-well cell culture plates. […] On the third day, the cells were subjected to a toxic concentration of hydrogen peroxide (250 μM) and the protection was analyzed 24 hours later. On completing the treatment, the cells were washed twice and cell survival (Resazurin test) was analyzed.
In order to study the synergistic effect of epicatechin, catechin and ferulic acid, the SK-N-SH cells were grown to 80% confluence then seeded in multi-well cell culture plates. […] On the third day, the cells were subjected to a toxic concentration of hydrogen peroxide (125 μM and 250 μM) and the protection was analyzed 24 hours later. On completing the treatment, the cells were washed twice and cell survival (Resazurin test) was analyzed. […]

Compound | protection of cells against hydrogen peroxide, cumulative treatment, polyphenols taken individually (cell survival, Resazurin test) | protection of cells against hydrogen peroxide, acute treatment (cell death LDH release, survival Resazurin test)
COc1cc(/C=C/C(=O)O)ccc1O [ferulic acid] | do not protect the cells against hydrogen peroxide | do not protect the cells against hydrogen peroxide
catechin | do not protect the cells against hydrogen peroxide | do not protect the cells against hydrogen peroxide

Reference: US12263200B2, “Specific nutritional or therapeutic agent including a mixture of grape and blueberry” (priority 2015, dated 2025)
